# Several values for one entry are separate records, joined by “and”; a condition that tells them apart may be missing. Identical values can stand only once. Toxic doses and inconclusive results are not listed.
# Test system: L1210 leukemia ip in BDF1 mice, survival T/C
# Test: NCI In Vivo Anticancer Drug Screen. Data for tumor model L1210 Leukemia (intraperitoneal) in B6D2F1 (BDF1) mice
# Settings: endpoint: mean survival time, higher = longer survival
# How it was run: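 Tumor was transplanted into mice, which were then dosed with test compound or vehicle alone. Survival was recorded for each group, and the treated figure was expressed relative to the control figure.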
# [1] = dose: 75.0 mg/kg/injection, schedule: Q04DX003 (ip), vehicle: Klucel (hydroxypropylcellulose) (HPC)
# [2] = dose: 100.0 mg/kg/injection, schedule: Q01DX001 (ip), vehicle: saline
# [3] = dose: 200.0 mg/kg/injection, schedule: Q01DX001 (ip), vehicle: saline
# [4] = dose: 400.0 mg/kg/injection, schedule: Q01DX001 (ip), vehicle: saline
# [5] = dose: 75.0 mg/kg/injection, schedule: Q01DX001 (ip), vehicle: saline
# [6] = dose: 150.0 mg/kg/injection, schedule: Q01DX001 (ip), vehicle: saline
# [7] = dose: 100.0 mg/kg/injection, schedule: Q04DX003 (ip), vehicle: saline
# [8] = dose: 200.0 mg/kg/injection, schedule: Q04DX003 (ip), vehicle: saline
# [9] = dose: 400.0 mg/kg/injection, schedule: Q04DX003 (ip), vehicle: saline
# [10] = dose: 100.0 mg/kg/injection, schedule: Q04DX003 (ip), vehicle: saline with Tween-80
# [11] = dose: 200.0 mg/kg/injection, schedule: Q04DX003 (ip), vehicle: saline with Tween-80
# [12] = dose: 400.0 mg/kg/injection, schedule: Q04DX003 (ip), vehicle: saline with Tween-80
# [13] = dose: 100.0 mg/kg/injection, schedule: Q01DX009 (ip), vehicle: Klucel (hydroxypropylcellulose) (HPC)
# [14] = dose: 200.0 mg/kg/injection, schedule: Q01DX009 (ip), vehicle: Klucel (hydroxypropylcellulose) (HPC)
# [15] = dose: 400.0 mg/kg/injection, schedule: Q01DX009 (ip), vehicle: Klucel (hydroxypropylcellulose) (HPC)
# [16] = dose: 100.0 mg/kg/injection, schedule: Q04DX002 (ip), vehicle: Klucel (hydroxypropylcellulose) (HPC)
# [17] = dose: 200.0 mg/kg/injection, schedule: Q04DX002 (ip), vehicle: Klucel (hydroxypropylcellulose) (HPC)
# [18] = dose: 400.0 mg/kg/injection, schedule: Q04DX002 (ip), vehicle: Klucel (hydroxypropylcellulose) (HPC)
smiles,measurement,setting,value
CC1(C)N=C(N)N=C(N)N1c1ccc(OCCOc2ccc(S(=O)(=O)F)cc2)c(Cl)c1,T/C,"dose: 33.0 mg/kg/injection, schedule: Q04DX003 (ip), vehicle: Klucel (hydroxypropylcellulose) (HPC)",102 % of control
same,T/C,"dose: 33.0 mg/kg/injection, schedule: Q04DX003 (ip), vehicle: saline sonified",117 % of control
same,T/C,"dose: 50.0 mg/kg/injection, schedule: Q01DX009 (ip), vehicle: saline sonified",152 % of control
same,T/C,"dose: 50.0 mg/kg/injection, schedule: Q04DX003 (ip), vehicle: Klucel (hydroxypropylcellulose) (HPC)",112 % of control
same,T/C,[1],112 % of control
same,T/C,"dose: 75.0 mg/kg/injection, schedule: Q04DX003 (ip), vehicle: saline sonified",113 % of control
same,T/C,"dose: 100.0 mg/kg/injection, schedule: Q01DX009 (ip), vehicle: saline sonified",109 % of control
same,T/C,"dose: 100.0 mg/kg/injection, schedule: Q04DX003 (ip), vehicle: other",96 % of control
same,T/C,"dose: 200.0 mg/kg/injection, schedule: Q04DX003 (ip), vehicle: other",103 % of control
same,T/C,"dose: 400.0 mg/kg/injection, schedule: Q04DX003 (ip), vehicle: other",96 % of control
NC(CS)C(=O)O (centres undefined) (tested in a mixture with another compound),T/C,[2],108 % of control
same,T/C,[3],92 % of control
same,T/C,[4],89 % of control
Cc1cc(N(C)C)nc(SCc2ccc(Cl)cc2Cl)n1,T/C,"dose: 200.0 mg/kg/injection, schedule: Q01DX Z (ip), vehicle: methylcellulose (MC)",105 % of control
Cc1cc(C)nc(N(C)CC(=O)O)n1,T/C,"dose: 50.0 mg/kg/injection, schedule: Q04DX002 (ip), vehicle: saline",100 % of control
same,T/C,"dose: 100.0 mg/kg/injection, schedule: Q04DX002 (ip), vehicle: saline",95 % of control
same,T/C,"dose: 200.0 mg/kg/injection, schedule: Q04DX002 (ip), vehicle: saline",103 % of control
NC(=O)N/N=C1\CC2CCC1C2Cl (centres undefined),T/C,[5],100 % of control and 107 % of control
same,T/C,[6],96 % of control
same,T/C,"dose: 300.0 mg/kg/injection, schedule: Q01DX001 (ip), vehicle: saline",98 % of control and 88 % of control
O=[N+]([O-])c1ccc(/C=C/c2ccc([N+](=O)[O-])cc2S(=O)(=O)O)c(S(=O)(=O)O)c1,T/C,[7],94 % of control
same,T/C,[8],96 % of control
same,T/C,[9],96 % of control
Cc1nc(C(N)=O)c(=O)[nH]c1C,T/C,"dose: 6.25 mg/kg/injection, schedule: Q04DX003 (ip), vehicle: saline",95 % of control
same,T/C,"dose: 12.5 mg/kg/injection, schedule: Q04DX003 (ip), vehicle: saline",97 % of control
same,T/C,"dose: 25.0 mg/kg/injection, schedule: Q04DX003 (ip), vehicle: saline",94 % of control
same,T/C,"dose: 50.0 mg/kg/injection, schedule: Q04DX003 (ip), vehicle: saline",101 % of control
same,T/C,"dose: 100.0 mg/kg/injection, schedule: Q04DX003 (ip), vehicle: Klucel (hydroxypropylcellulose) (HPC)",102 % of control
same,T/C,"dose: 200.0 mg/kg/injection, schedule: Q04DX003 (ip), vehicle: Klucel (hydroxypropylcellulose) (HPC)",100 % of control
same,T/C,"dose: 400.0 mg/kg/injection, schedule: Q04DX003 (ip), vehicle: Klucel (hydroxypropylcellulose) (HPC)",100 % of control
c1ccc(CC(Cc2ccccc2)c2nc3ccccc3s2)cc1,T/C,"dose: 75.0 mg/kg/injection, schedule: Q01DX009 (ip), vehicle: saline",98 % of control
same,T/C,[7],98 % of control
same,T/C,"dose: 150.0 mg/kg/injection, schedule: Q01DX009 (ip), vehicle: saline",98 % of control
same,T/C,[8],92 % of control
same,T/C,"dose: 300.0 mg/kg/injection, schedule: Q01DX009 (ip), vehicle: saline",95 % of control
same,T/C,[9],92 % of control
NC(=O)c1cn[nH]c1/N=N/N1CCCC1C(=O)O (centres undefined),T/C,"dose: 100.0 mg/kg/injection, schedule: Q01DX001 (ip), vehicle: saline with Tween-80",100 % of control
same,T/C,"dose: 100.0 mg/kg/injection, schedule: Q01DX009 (ip), vehicle: saline with Tween-80",111 % of control
same,T/C,[10],104 % of control
same,T/C,"dose: 200.0 mg/kg/injection, schedule: Q01DX001 (ip), vehicle: saline with Tween-80",107 % of control
same,T/C,"dose: 200.0 mg/kg/injection, schedule: Q01DX009 (ip), vehicle: saline with Tween-80",97 % of control
same,T/C,[11],104 % of control
same,T/C,"dose: 400.0 mg/kg/injection, schedule: Q01DX001 (ip), vehicle: saline with Tween-80",102 % of control
same,T/C,"dose: 400.0 mg/kg/injection, schedule: Q01DX009 (ip), vehicle: saline with Tween-80",94 % of control
same,T/C,[12],106 % of control
CSc1ccc(OC(C)=O)cc1C,T/C,[2],106 % of control
same,T/C,[3],98 % of control
same,T/C,[4],96 % of control
Cc1c(C2=CC(=O)c3ccccc3C2=O)[nH]c2ccccc12,T/C,"dose: 50.0 mg/kg/injection, schedule: Q01DX001 (ip), vehicle: other",93 % of control
same,T/C,"dose: 100.0 mg/kg/injection, schedule: Q01DX001 (ip), vehicle: other",91 % of control
same,T/C,"dose: 200.0 mg/kg/injection, schedule: Q01DX001 (ip), vehicle: other",102 % of control
same,T/C,"dose: 400.0 mg/kg/injection, schedule: Q01DX001 (ip), vehicle: other",106 % of control
CC(C)(C)OC(=O)C1=CNCCC1,T/C,[2],102 % of control
same,T/C,[7],106 % of control
same,T/C,[3],94 % of control
same,T/C,[8],98 % of control
same,T/C,[4],105 % of control
CN(C)/N=N/c1nc(CCCc2ccccc2)[nH]c1C(N)=O,T/C,[10],98 % of control
same,T/C,[11],103 % of control
same,T/C,[12],110 % of control
Cn1c2ccccc2c2cc3cnccc3cc21,T/C,"dose: 37.5 mg/kg/injection, schedule: Q04DX003 (ip), vehicle: Klucel (hydroxypropylcellulose) (HPC)",102 % of control
same,T/C,[1],105 % of control
same,T/C,"dose: 150.0 mg/kg/injection, schedule: Q04DX003 (ip), vehicle: Klucel (hydroxypropylcellulose) (HPC)",106 % of control
same,T/C,"dose: 300.0 mg/kg/injection, schedule: Q04DX003 (ip), vehicle: Klucel (hydroxypropylcellulose) (HPC)",111 % of control
O=C(O)CCSCCSCCC(=O)O,T/C,[13],95 % of control
same,T/C,[14],90 % of control
same,T/C,[15],100 % of control
O=C(Oc1cc(Cl)c(S(=O)(=O)F)cc1Cl)c1ccccc1Cl,T/C,"dose: 100.0 mg/kg/injection, schedule: Q04DX003 (ip), vehicle: carboxymethylcellulose (CMC)",88 % of control
same,T/C,"dose: 200.0 mg/kg/injection, schedule: Q04DX003 (ip), vehicle: carboxymethylcellulose (CMC)",90 % of control
same,T/C,"dose: 400.0 mg/kg/injection, schedule: Q04DX003 (ip), vehicle: carboxymethylcellulose (CMC)",88 % of control
C=C(C)C(=O)OCC(O)C[N+](C)(C)C (centres undefined),T/C,"dose: 25.0 mg/kg/injection, schedule: Q01DX009 (ip), vehicle: saline",98 % of control
same,T/C,"dose: 50.0 mg/kg/injection, schedule: Q01DX009 (ip), vehicle: saline",101 % of control
same,T/C,[5],101 % of control
same,T/C,"dose: 100.0 mg/kg/injection, schedule: Q01DX009 (ip), vehicle: saline",97 % of control
same,T/C,[6],98 % of control
NCc1ccc(NC(=O)c2ccc(C(=O)Nc3ccc(CN)cc3)c(N)c2)cc1,T/C,"dose: 21.0 mg/kg/injection, schedule: Q01DX Z (ip), vehicle: water",100 % of control
same,T/C,"dose: 42.0 mg/kg/injection, schedule: Q01DX Z (ip), vehicle: water",98 % of control
O=C(O)COc1ccc(F)c(F)c1,T/C,[16],90 % of control
same,T/C,[17],104 % of control
same,T/C,[18],93 % of control
Cc1cccc(Cl)c1NC(=O)C(C)C,T/C,"dose: 100.0 mg/kg/injection, schedule: Q01DX009 (ip), vehicle: other",101 % of control
same,T/C,"dose: 200.0 mg/kg/injection, schedule: Q01DX009 (ip), vehicle: other",104 % of control
same,T/C,"dose: 400.0 mg/kg/injection, schedule: Q01DX009 (ip), vehicle: other",98 % of control
O=C(Nc1cc(C(F)(F)F)ccc1Cl)OCC(F)(F)F,T/C,[13],97 % of control and 104 % of control
same,T/C,[16],108 % of control and 91 % of control
same,T/C,[14],105 % of control and 112 % of control
same,T/C,[17],103 % of control and 104 % of control
same,T/C,[15],94 % of control and 108 % of control
same,T/C,[18],103 % of control and 107 % of control
